{
  "source": "patent EP4653001A1",
  "about": "“TREATMENT, DIAGNOSIS AND/OR PROGNOSIS OF MITOCHONDRIAL DISEASES” (Universidad Autónoma de Madrid, priority 2024, dated 2025)",
  "key": {"[1]": {"system": "143B cells", "test": "Stable isotope tracing with uniformly labeled 13C-glucose", "type": "cell-based", "procedure": "1-5.0×10^6 cells were harvested on dry ice with 1 mL pre-chilled 80% HPLC-grade methanol (Fluka Analytical). The cell mixture was incubated for 15 min on dry ice prior to centrifugation at 18,000 × g for 10 min at 4°C. The supernatant was retained, and the remaining cell pellet was resuspended in 800 µL chilled 80% methanol and centrifuged. Supernatant was combined with the previous retention and was lyophilized using a SpeedVac (Thermo Fisher). Lyophilized samples were resuspended in 20 µL ultrapure water and subjected to metabolomics profiling using the AB/SCIEX 5500 QTRAP triple quadrupole instrument. Data analysis was performed using the GiTools software. […]\nEncouraged by the beneficial effects of ME1 and because ME1-dependent NADPH production is linked to intracellular malate levels, we sought to investigate the metabolic pathways and nutrients that maintain malate production upon disruption of the ETC. It is firmly believed that in cells and tissues with defective ETC function, elevated NADH/NAD+ ratio inhibits the Pyruvate dehydrogenase complex (PDC), suppressing pyruvate entry into the mitochondria and forcing its channelling towards the Lactate Dehydrogenase (LDH) in the cytosol. […] This reaction involves addition of an unlabeled carbon by IDH2 acting in reverse relative to the canonical oxidative TCA cycle. Malate M+3 also rose more than a ~2-fold in CI-inhibited cells and was likely formed after cleavage of citrate M+5 by ATP-citrate lyase (ACLY) since this induction was blunted in ACLY KO cells. […] We hypothesized that an alternative mechanism could involve pyruvate entry into the mitochondria where it can be carboxylated to OAA by the pyruvate carboxylase (PC). […] To examine the contribution of PC to malate formation in the context of ETC dysfunction, control and PC KO cells were cultured with uniformly labeled [^13C]glucose and treated either with DMSO or Piericidin. In this labeling scheme, oxidative metabolism of glucose-derived pyruvate would give rise to TCA cycle intermediates with M+2 labeling as CO2 is removed during conversion of pyruvate to acetyl-CoA by pyruvate dehydrogenase (PDH). By contrast, carbon labels are retained if pyruvate is carboxylated by PC and would generate M+3 intermediates (Figure 3A). […] Malate and aspartate M+3/M+2 ratios, which reflect the relative contribution of PC versus PDH to metabolite labeling, were ~7-fold and ~10-fold higher respectively, in cells treated with Piericidin (Figure 3B and C). […] In this regard, it is not surprising that PC activity is favoured over PDH when the ETC is defective as it is not regulated by NADH levels."}, "[2]": {"system": "143B cells", "test": "Time-course cell proliferation / survival of 143B cells", "type": "cell-based", "conditions": "143B cells, over the course of 96 h; Piericidin 100 nM, G6PDi 50 uM; combination effect beyond 48 h", "procedure": "All cell lines, 143b, HeLa, U2OS, and transmitochondrial cybrids carrying mutation in CI (ND2), CIII (CytB) or CIV (Cox2) subunits, were maintained in DMEM high glucose (HyClone), 10% FBS and 1% P/S at 37°C with 5% CO2. Mitochondrial mutant cells were cultured with supplementation of 50 µg/mL uridine. The selected cancer cell lines with different levels of malic enzyme (HCC15, KYSE410, CAKI1, J82, MDAMB453, Colo320, NCIH1703) were obtained from the DSMZ-German Collection of Microorganisms and Cell Cultures GmbH and cultured in the same DMEM 10% FBS medium. OCI-Lys3 and RCH-ACV cell lines (cells in suspension), were obtained from the same repository and cultured in RPMI 10% FBS medium. Transfections for gain- and loss-of-function studies were performed according to the manufacturer's instructions using the polyfect reagent (Qiagen, 301107). […] Subsequently, cells were trypsinized and quantified using a hemocytometer (NanoEnTek, DHC-N01). Cell viability was quantified using propidium iodide (PI; 50 µg/ml) staining.\nNext, we conducted time-course experiments to gain further knowledge on the metabolic determinants underlying the observed synthetic lethality between PPP and OXPHOS. 143B cells were treated either with Piericidin or G6PDi (selective inhibitor of G6PD) alone or the combination of both and cell proliferation was quantified over the course of 96 h. […]"}, "[3]": {"system": "astrocytes", "test": "NADPH/NADP+ levels in astrocytes", "type": "cell-based, mouse", "procedure": "Primary cultures of C57BL/6 mouse cortical astrocytes were derived from postnatal day 2-3 pups. They were plated on pre-treated dishes coated with Poly-L-lysine (100 µg/ml) and cultured in DMEM/F-12 (ThermoFisher) supplemented with 15% FBS and 1% penicillin/streptomycin (P/S). After 24 hours of plating, the medium was switched to 10% FBS.\nThe NADP/NADP-Glo™ Assay (Promega) was employed to assess the NADP/NADPH ratio in cultured cells, following the manufacturer's instructions (Technical Bulletin Number TM400). This bioluminescent assay can detect both total oxidized and reduced nicotinamide adenine dinucleotide phosphates (NADP+ and NADPH) and determine their ratio.\nCells were cultured in 24-well plates (Falcon®) at varying concentrations depending on the cell type and the specific experiment. After removing the media, we added 100 µl of PBS 1X per well and lysed the cells by introducing 100 µl of a base solution with 1% DTAB (1:1 ratio). To adapt the volumes for a 96-well plate, we divided the 200 µl total into two parts, allocating 50 µl for measuring NADP+ and 50 µl for NADPH in separate positions on the plate, allowing us to measure both NADP and NADPH levels. The assay was then carried out as per the standard protocol. Luminescence was measured using the CLARIOstar Plus plate reader from BMG LABTECH."}, "[4]": {"conditions": "uniformly labeled [13C]glucose, vs DMSO"}},
  "data": [
    {"smiles": "CC=C(C)C(O)C(C)C=C(C)C=CCC(C)=CCc1nc(OC)c(OC)c(O)c1C", "note": "(stereo not shown) [Piericidin, Piericidin A]", "values": [
      {"measurement": "PDH-dependent labeling of aspartate and malate", "setting": "[1]; control and PC KO cells", "result": "clearly reduced"},
      {"measurement": "PC-mediated labeling of TCA cycle intermediates", "setting": "[1]; particularly aspartate and malate", "result": "marked induction"},
      {"measurement": "Malate M+3/M+2 ratio, higher", "setting": "[1]; [4]", "result": "~ 7 fold"},
      {"measurement": "aspartate M+3/M+2 ratio, higher", "setting": "[1]; [4]", "result": "~ 10 fold"},
      {"measurement": "cellular fitness / cell survival", "setting": "[2]", "result": "did not cause a substantial decline"},
      {"measurement": "levels of NADPH", "setting": "[3]; PC and ME1 knockdown astrocytes, 100nM, 96 h", "result": "reduced"},
      {"measurement": "NADPH levels", "setting": "[3]; astrocytes, 100 nM, 24 h", "result": "did not cause any alteration"}
    ]}
  ]
}
